Values after ≈ are worked out from the molar mass of the structure shown. Structures can show the parent of a compound that is named as a salt. Where two headings read alike, the source gives them in different places.
What was measured:
[1] = tested on: isolated duodenum of the rabbit (barium chloride); test: spasmolytic effect on isolated duodenum, barium chloride spasm; format: cell-based; details: Oryctolagus cuniculus, read-out: Spasmolytic effects EC 50 with respect to barium chloride
Text: (§1) Ges. Physiol., 102, 123, (1904) with respect to the spasms of the isolated duodenum of rabbits caused either by acetylchlorine for the spasmolytic nemotropes or by barium chloride for the spasmolytic musculotropes.

dogs = test: anti-emetic activity, apomorphine vomiting test on dogs; format: in vivo; details: for ED50: Canis lupus familiaris, po, read-out: Anti-emetic activity on dogs ED 50
Text: The anti-emetic properties of the compounds according to the invention have been shown by oral administration of apomorphine to dogs in the vomiting test according to G. Chen and C. J. Ensor, Pharmacol. exp. Therap., 98, 24 (1950).

[2] = acute toxicity, LD 50, CD 1 mice; format: in vivo; details: mouse, in vivo
Text: The acute toxicities of the compounds according to the invention have been determined on CD 1 (Charles RIVER) mice by intravenous and oral methods. The LD 50 of each compound has been calculated by the cumulative method of J. J. Reed and H. Muench, (Amer. J. Hyg., 1938, 27, 493).

[3] = tested on: isolated duodenum of the rabbit (acetylcholine); test: spasmolytic effect on isolated duodenum, acetylcholine spasm; format: cell-based; details: Oryctolagus cuniculus, read-out: Spasmolytic effects EC 50 with respect to acetylcholine
Text: as §1

head twitch = test: anti-serotonine activity, head twitch; format: in vivo, CD 1 (Charles RIVER) mice; details: Mus musculus, po; mice, orally; read-out: "Head-twitch" AD 50
Text: (§2) The anti-serotonine activities of the compounds according to the invention have been shown by oral administration to the CD (Charles RIVER) rats using the technique of the serotonine plantar oedema (W. Theobald and R. Domenjoz--Arzneimittel Forsch, 8, 18, 1958 and with the CD 1 (Charles RIVER) mice using the technique known as "head twitch" according to S. J. Corne, R. W. Pickering and B. T. Warner, Brit. J. Pharmacol., 20, 106, (1963). The anti-serotonine activity has also been determined on the one hand on the tricoloured guinea-pig, given intravenously, according to a method derived from H. Konzet and R. Rossler, Arch. exp. Pathol, Pharmakol., 195, 71, (1940) and on the other hand in vitro with respect to the serotonine spasm of the isolated uterus of the rat according to the technique of A. Fanchamps, W. Doepfener, H. Weidman and A. Cerletti, Schw. Med. Worsch, 90, 1940, (1960).

mouse [4] = test: traction test, mouse; format: in vivo, CD1 (Charles RIVER) mice; details: po, orally, read-out: Traction AD 50
Text: (§3) The neuroloptic effects of the compounds according to the invention have been shown with respect to the CD rat (Charles RIVER) taken orally in the catalepsy test according to S. COURVOISIER, R. DUCROT, and L. JULOU, in Psychotropic Drugs, S. GARATTINI and V. GHETTI, Edit.--ELSEVIER Publ. Co., AMSTERDAM, LONDON, NEW YORK, PRINCETON, 1957 P. 373 and also in the traction test of CD1 (Charles RIVER) mice taken orally S. COURVOISIER, Quart. Rev. Psychiat. Neurol. 17, 25 (1956), on the one hand and also in the spontaneous motility test.

serotonine bronchospasms = test: anti-serotonine activity, serotonine bronchospasms; format: in vivo, tricoloured guinea-pig; details: Cavia porcellus, iv; guinea pig, intravenously; read-out: Serotonine bronchospasms ED 50
Text: as §2

rat = test: catalepsy test, rat; format: in vivo, CD rat (Charles RIVER); details: po, orally, read-out: Catalepsy AD 50
Text: as §3

mice = test: analgesic activity, painful abdominal torsions test with phenylbenzoquinone; format: in vivo, CD 1 (Charles RIVER) mice; details: Mus musculus, po; mice, orally; read-out: Phenylbenzoquinone test on mice AD 50
Text: The analgesic properties of the products according to the invention have been shown with CD 1 (Charles RIVER) mice in the painful abdominal torsions test with phenylbenzoquinone according to the technique of E. Siegmund, R. Cadmus and Go.Lu--Proc. Soc. Exp. Biol. Med., 95, 729, (1957).

mouse [5] = test: spontaneous motility test (hypomotility), mouse; format: in vivo, mice; details: po, 1 h, orally, 60 minutes before measuring, 50% reduction of mean motility, first 5 minutes, read-out: Hypomotility ED 50
Text: as §3
This latter technique comprises keeping an account of the displacements of the mice by means of a floor of metal strips which enables the spontaneous activity of the animals to be recorded during the first 5 minutes subsequent to their being introduced into the measuring chamber. The products are dispensed 60 minutes before measuring is effected and 10 mice are used per dose. The results are expressed in ED 50 which represents the dose of substance capable of reducing the mean motility of the treated animals by 50% relative to that of the sample group which has only received the dispensing carrier.

solubility = format: physicochemical
[6] = tested on: serotonine plantar oedema; test: anti-serotonine activity, serotonine plantar oedema; format: in vivo, CD (Charles RIVER) rats; details: po; rat, orally; read-out: Serotonine plantar oedema AD 50
Text: as §2

[7] = intravenous, read-out: Acute toxicity for mice LD 50, intravenous
[8] = oral, read-out: Acute toxicity for mice LD 50, orally

| SMILES | EC50 [1] [µg/mL] | ED50 (dogs; dogs, orally, apomorphine) [mg/kg] | LD50 [2, 7] [mg/kg] | LD50 [2, 8] [mg/kg] | EC50 [3] [µg/mL] | ED50 (head twitch) [mg/kg] | ED50 (mouse [4]) [mg/kg] | ED50 (dogs) [mg/kg] | ED50 (serotonine bronchospasms) [mg/kg] | ED50 (rat) [mg/kg] | ED50 (mice) [mg/kg] | ED50 (mouse [5]) [mg/kg] | solubility in dilute hydrochloric acid (solubility) | solubility in water (solubility) | ED50 [6] [mg/kg] | solubility in ethanol (alcohol) (solubility) | anti-vomiting ranking (dogs; comparison within the series, dogs) |
| --- | --- | --- | --- | --- | --- | --- | --- | --- | --- | --- | --- | --- | --- | --- | --- | --- | --- |
| CNc1nc(Cl)c(SC)c(N2CCN(CCO)CC2)n1 [Example 8, 2-Methylamino-4-N-(β-hydroxyethyl)-piperazino-6-chloro-5-methylthio-pyrimidine] | 1.3 (≈ 4.09 µM) | 0.25 | 124 | ~525 | 5 (≈ 15.7 µM) |  |  |  |  |  |  |  |  |  |  |  |  |
| CNc1nc(Cl)c(SC)c(N2CCN(c3ccccc3)CC2)n1 [Example 7, 4-N-phenylpiperazino-2-methylamino-6-chloro-5-methylthio-pyrimidine] |  |  |  |  |  | 400 |  |  |  |  |  |  |  |  |  |  |  |
| CSc1c(Cl)nc(N)nc1N1CCN(C)CC1 [Example 6, 2-Amino-4-N-methylpiperazino-6-chloro-5-methylthio-pyrimidine hydrochloride] |  |  | 33 | ~225 |  | 30 | > 100 | 0.11 | 1.2 | 100 |  |  |  |  |  |  |  |
| CSc1c(Cl)nc(N2CCN(C)CC2)nc1N1CCN(C)CC1 [Example 9, Bis-2,4-(N-methylpiperazino)-6-chloro-5-methylthio-pyrimidine hydrochloride] | 3.6 |  | 83 | ~675 | > 10 | 300 |  |  |  |  | 150 |  |  |  |  |  |  |
| COc1ccc(Nc2nc(Cl)c(SC)c(N3CCN(C)CC3)n2)cc1 [Example 32, 4'-methoxy-2-phenylamino-4-N-methylpiperazino-6-chloro-5-methylthiopyrimidine] |  |  | 83 | ~495 | 5.5 (≈ 14.5 µM) | 27 |  |  | 0.9 |  | > 35 | 60 | soluble | insoluble |  |  |  |
| CSc1c(Cl)nc(N2CCCCC2)nc1N1CCN(C)CC1 [Example 11, 2-Piperidino-4-methylpiperazino-5-methylthio-6-chloro-pyrimidine hydrochloride] | 2.2 |  | 115 | ~525 | 2.5 |  |  |  |  |  |  |  |  |  |  |  |  |
| CNc1nc(OC)c(SC)c(N2CCN(C)CC2)n1 [Example 17, 2-Methylamino-4-N-methylpiperazino-5-methyl-thio-6-methoxy-pyrimidine hydrochloride] |  |  | 58 | ~400 |  |  |  | 1.4 | 3 |  |  |  |  |  | 100 |  |  |
| C=CCNc1nc(Cl)c(SC)c(N2CCN(C)CC2)n1 [Example 21, 2-Allylamino-4-N-methylpiperazino-6-chloro-5-methylthio-pyrimidine] | 1 (≈ 3.19 µM) | 0.8 | 46 | ~200 | 1.6 (≈ 5.1 µM) | 20 |  |  | 0.01 | 300 | > 100 | 28 | soluble | water-insoluble | > 100 | soluble |  |
| C=CCOc1nc(NC)nc(N2CCN(C)CC2)c1SC [Example 19, 2-methylamino-4-N-methylpiperazino-5-methylthio-6-allyloxy-pyrimidine hydrochloride] | 3.1 | 1.5 | 56 | ~400 | > 5 |  |  |  |  |  | 100 |  |  |  | > 100 |  |  |
| CCN(CC)c1nc(Cl)c(SC)c(N2CCN(C)CC2)n1 [Example 15, 2-N-diethylamino-4-N-methylpiperazino-5-methylthio-6-chloro-pyrimidine dihydrobromide] | 4 |  | 123 | ~600 | 5 |  |  |  |  |  | 300 |  |  |  |  |  |  |
| CSc1c(Cl)nc(N(C)C(=O)c2ccccc2)nc1N1CCN(C)CC1 [Example 13, 2-(N-methyl-N-benzoyl)amino-4-N-methyl-piperazino-6-chloro-5-methylthio-pyrimidine hydrochloride] | 2.6 | 1.9 | 91 | ~600 | 4 | 300 |  |  |  |  |  |  |  |  | > 300 |  |  |
| CCCOc1nc(NC)nc(N2CCN(C)CC2)c1SC [Example 18, 2-Methylamino-4-N-methylpiperazino-5-methylthio-6-propoxy-pyrimidine hydrochloride] | 2.1 | 3.9 | 63 | ~525 | > 5 |  |  |  |  |  |  |  |  |  |  |  |  |
| CSc1c(Cl)nc(N(C)c2ccccc2)nc1N1CCN(C)CC1 [Example 12, 2-(N-methyl-N-phenyl)amino-4-N-methylpiperazino-5-methylthio-6-chloro-pyrimidine hydrochloride] | 2.2 |  | 113 | ~525 | 3 |  |  |  |  |  | 100 |  |  |  |  |  |  |
| CSc1c(Cl)nc(N2CCOCC2)nc1N1CCN(C)CC1 [Example 28, 2-Morpholino-4-N-methylpiperazino-6-chloro-5-methylthiopyrimidine] | 1.7 (≈ 4.94 µM) | > 5 | 110 | ~400 | 4.5 (≈ 13.1 µM) | 70 |  |  | > 0.1 |  | > 100 | 100 | soluble | insoluble | > 100 | soluble |  |
| CSc1c(Cl)nc(NCCO)nc1N1CCN(C)CC1 [Example 22, 2-N-(β-hydroxyethyl)amino-4-N-methylpiperazino-6-chloro-5-methylthiopyrimidine] | > 10 | 0.85 | 89 | ~600 | > 10 | > 100 |  |  | 0.16 |  | > 100 | 100 | soluble | insoluble |  | soluble |  |
| CSc1c(Cl)nc(NC(C)(C)C)nc1N1CCN(C)CC1 [Example 3, 2-t-butylamino-4-N-methylpiperazino-5-methylthio-6-chloro-pyrimidine] | 0.5 (≈ 1.52 µM) |  | 67 | ~600 | 2.5 (≈ 7.58 µM) | 300 |  |  |  |  |  |  |  |  |  |  |  |
| CSc1c(Cl)nc(NC(C)C)nc1N1CCN(C)CC1 [Example 2, 2-Isopropylamino-4-N-methyl-piperazino-6-chloro-5-methylthio-pyrimidine] | 1.2 (≈ 3.8 µM) | 0.12 | 79 | ~525 | 5 (≈ 15.8 µM) |  |  |  |  |  | 65 |  |  |  |  |  |  |
| CNc1nc(Cl)c(SC)c(N2CCNCC2)n1 [Example 10, 2-Methylamino-4-piperazino-6-chloro-5-methylthio-pyrimidine hydrochloride] |  |  | 57 | ~225 |  |  |  | 0.07 |  | 75 | 65 |  |  |  |  |  | the most strong anti-vomiting agents |

Source: patent publication US4166852A, “Piperazino-pyrimidines and their use as spasmolytic agents” (priority 1974, dated 1979)
